Here are results for one molecule from patent US11337990B2, “Human milk oligosaccharides to promote growth of beneficial bacteria” (ABBOTT LABORATORIES, priority 2010, dated 2022).

Entries after “also recorded” stand apart in the source; their conditions may differ.

The subject of test [1] is B. breve ATCC 15700. Put plainly: Bacterial growth assay (OD600). In kind it is cell-based, Bifidobacterium breve. The following applies: 1% carbohydrate in sMRS+cysteine. On the procedure: Coy Laboratory Products, Grass Lake, Mich.). Subsequently, the cultures are passed twice on a semi-synthetic MRS medium ([…] which is supplemented with 1% (w/v) filter-sterilized glucose as the sole carbohydrate source. […] For bifidobacteria strains, the same procedure is followed except all media are supplemented with 0.5 g/l L-cysteine/HCl. […] After the 2nd pass in sMRS+glucose+cysteine, the cultures are washed once with 10 mL of sterile sMRS+cysteine (no carbohydrate), resuspended in 10 ml of sterile sMRS+cysteine (no carbohydrate) and then used as a 1% inoculum. The carbohydrates are sterilized with a 0.22 micron filter and used at a 1% final concentration. Cell growth is performed in 250 μL of sMRS+cysteine covered with 50 μL of mineral oil in a Bioscreen 100-well Honeycomb plate. […] The plate reader is operated in discontinuous mode, with absorbance readings performed in 30-minute intervals, and preceded by 30-second shaking intervals at maximum speed. Controls consist of inoculated medium lacking carbohydrate. […] Maximum OD is determined by inspection of the corrected growth data. OD is determined by subtracting the initial corrected OD (time point 0) from the maximum corrected OD. Samples are grown in biologically independent triplicates and the resulting growth kinetic data are expressed as the mean of these replicates. […]

Test [2] concerns Caco-2 cells. Put plainly: Transepithelial resistance (barrier function), Caco-2, Ussing chambers. It is filed as cell-based, human. The conditions noted are these: Example 48, more mature Caco-2 cells. The source says: FIGS. 46-48 illustrate the effect of LNnT, 2′FL, and 6′SL on cell resistance (transepithelial resistance), which is a marker for epithelial barrier function, wherein a higher resistance is associated with a higher barrier function. Epithelial cell resistance or barrier function is a measure of differentiated epithelial cell function. Specifically, as the cells mature, tighter junctions between the cells are formed resulting in a stronger epithelial cell barrier. This barrier prevents the movement of large molecules, bacteria, or viruses from one side of the barrier to the other. […] Transepithelial resistance is measured using Transwell Snapwell inserts containing the desired cell culture were transferred to modified Ussing chambers and bathed in modified Kreb's solution at 37 C with 95% oxygen and 5% carbon dioxide. Transepithelial resistance was measured as the passive transport of ions across the monolayers.

Test [3] relates to infant fecal bacteria. In words: In vitro substrate fermentation model with infant feces (pH, SCFA, lactate). It is filed as cell-based, human infant.
Test [4] relates to Caco-2 cells. In words: Alkaline phosphatase activity per milligram of protein (cell differentiation), Caco-2. In kind it is cell-based, human. The conditions noted are these: Example 48: LNnT or 2′FL 20, 200, 2000 mg/L; 6′SL 40, 400, 4000 mg/mL; 72 hours. On the procedure:
In a second experiment, Caco-2 cells, which model more mature epithelial cells of the small intestine, are incubated in a humidified atmosphere of 5% carbon dioxide at 37° C. in the presence of LNnT or 2′FL at concentrations of 0 mg/L (“0”), 20 mg/L (“20”), 200 mg/L (“200”), and 2000 mg/L (“2000”) or in the presence of 6′SL at concentrations of 0 mg/mL (“0”), 40 mg/mL (“40”), 400 mg/mL (“400”), and 4000 mg/mL (“4000”) for 72 hours. The culture medium utilized is Dulbecco's Modified Eagle Medium (Life Technologies, Foster City Calif.) supplemented with 10% fetal calf serum and 2 mM glutamine. The controls (“energy”) consist of 91.5 mg lactose and 64.2 mg N-acetyllactosamine/L for LNnT; 133 mg lactose and 67 mg fucose/L for 2′FL; and 195 mg lactose and 205 mg sialic acid/L for 6′SL. The impact of the LNnT, 2′FL, and 6′SL at various levels and the control on Caco-2 cell proliferation is measured using a conventional BrdU assay, which measures the number of cells that have recently synthesized DNA. […] Additionally, the impact of LNnT, 2′FL, and 6′SL at various levels and the controls on the alkaline phosphatase activity per milligram of protein for Caco-2 cells, which is an indication of cell differentiation, is measured.

For test [5], the system named is bifidobacteria strains. In words: Bacterial growth assay (OD600), panel of 12 strains. It is filed as cell-based, Bifidobacterium. The conditions noted are these: 1% carbohydrate in sMRS+cysteine. How it is done: Coy Laboratory Products, Grass Lake, Mich.). Subsequently, the cultures are passed twice on a semi-synthetic MRS medium ([…] which is supplemented with 1% (w/v) filter-sterilized glucose as the sole carbohydrate source. […] For bifidobacteria strains, the same procedure is followed except all media are supplemented with 0.5 g/l L-cysteine/HCl. [table] After the 2nd pass in sMRS+glucose+cysteine, the cultures are washed once with 10 mL of sterile sMRS+cysteine (no carbohydrate), resuspended in 10 ml of sterile sMRS+cysteine (no carbohydrate) and then used as a 1% inoculum. The carbohydrates are sterilized with a 0.22 micron filter and used at a 1% final concentration. Cell growth is performed in 250 μL of sMRS+cysteine covered with 50 μL of mineral oil in a Bioscreen 100-well Honeycomb plate. […] The plate reader is operated in discontinuous mode, with absorbance readings performed in 30-minute intervals, and preceded by 30-second shaking intervals at maximum speed. Controls consist of inoculated medium lacking carbohydrate. […] All three plates include a positive control (glucose) and negative control (no carbohydrate). The OD600 data for each carbohydrate is corrected by subtracting the OD600 of the basal media (sMRS)+cysteine from the sample plate for each probiotic. Maximum OD is determined by inspection of the corrected growth data. OD is determined by subtracting the initial corrected OD (time point 0) from the maximum corrected OD. Samples are grown in biologically independent triplicates and the resulting growth kinetic data are expressed as the mean of these replicates. For the growth curve plots, OD600 vs. time is first plotted for the bacteria grown on medium lacking carbohydrate (sMRS). For all other carbohydrates, the OD600 data is corrected by subtracting the OD600 of sMRS.

Regarding `CC(=O)N[C@H]1[C@H](O[C@H]2[C@@H](O)[C@@H](CO)O[C@@H](O[C@H]3[C@H](O)[C@@H](O)C(O)O[C@@H]3CO)[C@@H]2O)O[C@H](CO)[C@@H](O[C@@H]2O[C@H](CO)[C@H](O)[C@H](O)[C@H]2O)[C@@H]1O` (mixture of isomers) [LNnT, Lacto-N-neotetraose], the “growth / ability to ferment (OD600)” value in test [1] was “grow well”; in test [5], “B. breve ATCC 15700, B. infantis ATCC 15697 and B. infantis M-63 are able to ferment”. The “cell resistance (transepithelial resistance), barrier function” value in test [2] was “can have a positive effect on cell resistance; also recorded: can positively affect barrier function of more mature cells”. In addition, in test [3], the fermentation rate entry is reported as “about 4,488 μg/g of dry matter/hour”. Also, the acetate production result in test [3] (3 and 6 h) is reported as “produce similar amounts of acetate”; in test [3] (6 h), “less acetate than GOS”. Further, the “acetate production, formula fed versus breast fed infants” value in test [3] (12 h) was “greater”. The lactate production entry in test [3] (12 h) is given as “greater (P<0.0001) compared to gum Arabic”; in test [3] (time not stated (between the 3 h and 12 h statements)), “greater (P<0.0001)”. Moreover, the “total SCFA production, formula fed versus breast fed infants” value in test [3] (after 3, 6 and 12 h of fermentation) was “greater (P=0.01) fermentation by formula fed infants”. The “pH change from baseline” value in test [3] (at 3, 6 and 12 h after inoculation) is reported as “greatest”. In test [3] (overall), the “fermentability by infant fecal bacteria” value is recorded as “highly fermentable; also recorded: readily fermented”. The propionate production result in test [3] (overall) is “greater (P<0.0001) propionate production than gum Arabic”. For the same molecule, the “relative rate of fermentation” value in test [3] (overall) is recorded as “fermented more rapidly than 6′SL; also recorded: fermentation rates similar to GOS”. Further, the lactate accumulation result in test [3] (up to 12 h) is given as “significant amounts of lactate”. For the same molecule, the “alkaline phosphatase activity per milligram of protein (cell differentiation)” value in test [4] is “trend toward an increase”.
